Experimental data taken from patent publication US10487116B2, “Immunotherapy against several tumors, such as lung cancer, including NSCLC” (IMMATICS BIOTECHNOLOGIES GMBH, priority 2013, dated 2019).
Where two headings read alike, the source gives them in different places.

Test system: CD8+ T cells
Assay: In vitro T-cell priming assay (aAPCs loaded with peptide/MHC and anti-CD28, pMHC multimer readout)
Assay type: cell-based, human
Conditions: for Wells: positive wells
From the text: In order to obtain information regarding the immunogenicity of the TUMAPs of the present invention, we performed investigations using an in vitro T-cell priming assay based on repeated stimulations of CD8+ T cells with artificial antigen presenting cells (aAPCs) loaded with peptide/MHC complexes and anti-CD28 antibody.
In order to perform in vitro stimulations by artificial antigen presenting cells loaded with peptide-MHC complex (pMHC) and anti-CD28 antibody, we first isolated CD8+ T cells from fresh HLA-A*02 leukapheresis products via positive selection using CD8 microbeads (Miltenyi Biotec, Bergisch-Gladbach, Germany) of healthy donors obtained from the Transfusion Medicine Tuebingen, Germany, after informed consent.
Isolated CD8+ lymphocytes or PBMCs were incubated until use in T-cell medium (TCM) consisting of RPMI-Glutamax (Invitrogen, Karlsruhe, Germany) supplemented with 10% heat inactivated human AB serum (PAN-Biotech, Aidenbach, Germany), 100 U/ml Penicillin/100 μg/ml Streptomycin (Cambrex, Cologne, Germany), 1 mM sodium pyruvate (CC Pro, Oberdorla, Germany), 20 μg/ml Gentamycin (Cambrex). 2.5 ng/ml IL-7 (PromoCell, Heidelberg, Germany) and 10 U/ml IL-2 (Novartis Pharma, Nurnberg, Germany) were also added to the TCM at this step.
Generation of pMHC/anti-CD28 coated beads, T-cell stimulations and readout was performed in a highly defined in vitro system using four different pMHC molecules per stimulation condition and 8 different pMHC molecules per readout condition.
All pMHC complexes used for aAPC loading and cytometric readout were derived from UV-induced MHC ligand exchange (Rodenko et al., 2006) with minor modifications. In order to determine the amount of pMHC monomer obtained by exchange we performed streptavidin-based sandwich ELISAs according to (Rodenko et al., 2006).
The purified co-stimulatory mouse IgG2a anti human CD28 Ab 9.3 (Jung et al., 1987) was chemically biotinylated using Sulfo-N-hydroxysuccinimidobiotin as recommended by the manufacturer (Perbio, Bonn, Germany). Beads used were 5.6 μm diameter streptavidin coated polystyrene particles (Bangs Laboratories, Ill., USA).
pMHC used for positive and negative control stimulations were A*0201/MLA-001 (peptide […] from modified Melan-A/MART-1) and A*0201/DDX5-001 ([…] from DDX5), respectively.
800.000 beads/200 μl were coated in 96-well plates in the presence of 4×12.5 ng different biotin-pMHC, washed and 600 ng biotin anti-CD28 were added subsequently in a volume of 200 μl. Stimulations were initiated in 96-well plates by co-incubating 1×10^6 CD8+ T cells with 2×10^5 washed coated beads in 200 μl TCM supplemented with 5 ng/ml IL-12 (PromoCell) for 3-4 days at 37° C. Half of the medium was then exchanged by fresh TCM supplemented with 80 U/ml IL-2 and incubating was continued for 3-4 days at 37° C. This stimulation cycle was performed for a total of three times. For the pMHC multimer readout using 8 different pMHC molecules per condition, a two-dimensional combinatorial coding approach was used as previously described (Andersen et al., 2012) with minor modifications encompassing coupling to 5 different fluorochromes. Finally, multimeric analyses were performed by staining the cells with Live/dead near IR dye (Invitrogen, Karlsruhe, Germany), CD8-FITC antibody clone SK1 (BD, Heidelberg, Germany) and fluorescent pMHC multimers. For analysis, a BD LSRII SORP cytometer equipped with appropriate lasers and filters was used. Peptide specific cells were calculated as percentage of total CD8+ cells. Evaluation of multimeric analysis was done using the FlowJo software (Tree Star, Oreg., USA). In vitro priming of specific multimer+CD8+ lymphocytes was detected by comparing to negative control stimulations.

[1] = in vitro immunogenicity, trifluoro-acetate salts of the peptides
[2] = in vitro immunogenicity, responding healthy donors, trifluoro-acetate salts of the peptides

With “43 (ALFPHLLQPV; listed as Homo sapiens) [compound 43]” the Wells [1] was “+ (<20% = +)” and the Donors [2] was “+++ (50%-70%, +++)”.
With “35 (VLFPNLKTV; listed as Homo sapiens) [compound 35]” the Wells [1] was “+ (<20% = +)” and the Donors [2] was “++ (20%-49% = ++)”.
For “48 (GLIEIISNA; listed as Homo sapiens) [compound 48]”, the Wells [1] was “+ (<20% = +)” and the Donors [2] was “+ (<20% = +)”.
For “72 (KLLTEVHAA; listed as Homo sapiens) [compound 72]”, the Wells [1] was “+ (<20% = +)” and the Donors [2] was “+++ (50%-70%, +++)”.
For “85 (KIVDFSYSV; listed as Homo sapiens) [compound 85]”, the Wells [1] was “++ (20%-49% = ++)” and the Donors [2] was “++++ (>70 = ++++)”.
For “63 (SLAGDVALQQL; listed as Homo sapiens) [compound 63]”, the Wells [1] was “+ (<20% = +)” and the Donors [2] was “++ (20%-49% = ++)”.
“45 (AIMGFIGFFV; listed as Homo sapiens) [compound 45]” was tested, and the Wells [1] was “+ (<20% = +)” and the Donors [2] was “+ (<20% = +)”.
For “21 (AILDTLYEV; listed as Homo sapiens) [compound 21]”, the Wells [1] was “++ (20%-49% = ++)” and the Donors [2] was “++ (20%-49% = ++)”.
In the case of “38 (SLHFLILYV; listed as Homo sapiens) [compound 38]”, the Wells [1] is reported as “+ (<20% = +)” and the Donors [2] is reported as “++ (20%-49% = ++)”.
With “62 (ILFPDIIARA; listed as Homo sapiens) [compound 62]” the Wells [1] was “++ (20%-49% = ++)” and the Donors [2] was “++++ (>70 = ++++)”.
In the case of “54 (KLVEFDFLGA; listed as Homo sapiens) [compound 54]”, the Wells [1] is reported as “+ (<20% = +)” and the Donors [2] is reported as “++ (20%-49% = ++)”.
For “78 (SLYDNQITTV; listed as Homo sapiens) [compound 78]”, the Wells [1] was “++ (20%-49% = ++)” and the Donors [2] was “++ (20%-49% = ++)”.
For “30 (KIYNEFISV; listed as Homo sapiens) [compound 30]”, the Wells [1] was “+ (<20% = +)” and the Donors [2] was “++ (20%-49% = ++)”.
With “24 (FLVDGSWSV; listed as Homo sapiens) [compound 24]” the Wells [1] was “+ (<20% = +)” and the Donors [2] was “++ (20%-49% = ++)”.
In the case of “73 (FLLDGSANV; listed as Homo sapiens) [compound 73]”, the Wells [1] is reported as “+ (<20% = +)” and the Donors [2] is reported as “++ (20%-49% = ++)”.
With “71 (KLLEYIEEI; listed as Homo sapiens) [compound 71]” the Wells [1] was “+ (<20% = +)” and the Donors [2] was “+++ (50%-70%, +++)”.
In the case of “47 (GVLENIFGV; listed as Homo sapiens) [compound 47]”, the Wells [1] is reported as “+ (<20% = +)” and the Donors [2] is reported as “++ (20%-49% = ++)”.
For “86 (AMATESILHFA; listed as Homo sapiens) [compound 86]”, the Wells [1] was “+ (<20% = +)” and the Donors [2] was “++ (20%-49% = ++)”.
For “44 (NLLAEIHGV; listed as Homo sapiens) [compound 44]”, the Wells [1] was “+ (<20% = +)” and the Donors [2] was “++ (20%-49% = ++)”.
With “70 (KILEDVVGV; listed as Homo sapiens) [compound 70]” the Wells [1] was “+ (<20% = +)” and the Donors [2] was “+++ (50%-70%, +++)”.
For “67 (ILQDRLNQV; listed as Homo sapiens) [compound 67]”, the Wells [1] was “+ (<20% = +)” and the Donors [2] was “++ (20%-49% = ++)”.
For “52 (ALLERGYSL; listed as Homo sapiens) [compound 52]”, the Wells [1] was “+ (<20% = +)” and the Donors [2] was “+ (<20% = +)”.
“66 (KIQEILTQV; listed as Homo sapiens) [compound 66]” was tested, and the Wells [1] was “+ (<20% = +)” and the Donors [2] was “+++ (50%-70%, +++)”.
In the case of “60 (VVDKTLLLV; listed as Homo sapiens) [compound 60]”, the Donors is reported as 100%, the Wells [1] is reported as “+++ (50%-70%, +++)” and the Donors [2] is reported as “++++ (>70 = ++++)”.
With “4 (NLIEKSIYL; listed as Homo sapiens) [compound 4]” the Wells [1] was “+ (<20% = +)” and the Donors [2] was “++ (20%-49% = ++)”.
With “79 (SLAPAGVIRV; listed as Homo sapiens) [compound 79]” the Wells [1] was “+ (<20% = +)” and the Donors [2] was “++++ (>70 = ++++)”.
With “11 (VLLPVEVATHYL; listed as Homo sapiens) [compound 11]” the Donors was 100%, the Wells [1] was “++ (20%-49% = ++)” and the Donors [2] was “++++ (>70 = ++++)”.
For “56 (SLYKGLLSV; listed as Homo sapiens) [compound 56]”, the Donors was 100%, the Wells [1] was “++ (20%-49% = ++)” and the Donors [2] was “++++ (>70 = ++++)”.
“31 (AIDGNNHEV; listed as Homo sapiens) [compound 31]” was tested, and the Wells [1] was “+ (<20% = +)” and the Donors [2] was “+++ (50%-70%, +++)”.
“2 (KIQEMQHFL; listed as Homo sapiens) [compound 2]” was tested, and the Wells [1] was “+ (<20% = +)” and the Donors [2] was “++ (20%-49% = ++)”.
In the case of “75 (ALYDSVILL; listed as Homo sapiens) [compound 75]”, the Wells [1] is reported as “+ (<20% = +)” and the Donors [2] is reported as “++ (20%-49% = ++)”.
With “33 (ALLRTVVSV; listed as Homo sapiens) [compound 33]” the Wells [1] was “+ (<20% = +)” and the Donors [2] was “+++ (50%-70%, +++)”.
For “39 (RLLDSVSRL; listed as Homo sapiens) [compound 39]”, the Wells [1] was “+ (<20% = +)” and the Donors [2] was “++ (20%-49% = ++)”.
For “59 (ILVSWLPRL; listed as Homo sapiens) [compound 59]”, the Wells [1] was “+ (<20% = +)” and the Donors [2] was “+++ (50%-70%, +++)”.
“18 (TLYPHTSQV; listed as Homo sapiens) [compound 18]” was tested, and the Wells [1] was “+ (<20% = +)” and the Donors [2] was “+++ (50%-70%, +++)”.
In the case of “74 (SLLAQNTSWLL; listed as Homo sapiens) [compound 74]”, the Wells [1] is reported as “+ (<20% = +)” and the Donors [2] is reported as “+++ (50%-70%, +++)”.
“81 (ALYGRLEVV; listed as Homo sapiens) [compound 81]” was tested, and the Wells [1] was “+ (<20% = +)” and the Donors [2] was “++ (20%-49% = ++)”.
With “32 (KLSWDLIYL; listed as Homo sapiens) [compound 32]” the Wells [1] was “+ (<20% = +)” and the Donors [2] was “+++ (50%-70%, +++)”.
With “87 (RVLPPSALQSV; listed as Homo sapiens) [compound 87]” the Wells [1] was “+ (<20% = +)” and the Donors [2] was “+++ (50%-70%, +++)”.
With “65 (KVLEILHRV; listed as Homo sapiens) [compound 65]” the Wells [1] was “++ (20%-49% = ++)” and the Donors [2] was “+++ (50%-70%, +++)”.
For “16 (TVIGFLLPFA; listed as Homo sapiens) [compound 16]”, the Wells [1] was “+ (<20% = +)” and the Donors [2] was “++ (20%-49% = ++)”.
In the case of “3 (ALDENLHQL; listed as Homo sapiens) [compound 3]”, the Wells [1] is reported as “+ (<20% = +)” and the Donors [2] is reported as “++ (20%-49% = ++)”.
In the case of “64 (AMLAVLHTV; listed as Homo sapiens) [compound 64]”, the Wells [1] is reported as “+ (<20% = +)” and the Donors [2] is reported as “+++ (50%-70%, +++)”.
“10 (VLSVVEVTL; listed as Homo sapiens) [compound 10]” was tested, and the Wells [1] was “+ (<20% = +)” and the Donors [2] was “++ (20%-49% = ++)”.
For “92 (HLLEDIAHV; listed as Homo sapiens) [compound 92]”, the Wells [1] was “+ (<20% = +)” and the Donors [2] was “++ (20%-49% = ++)”.
“69 (AMSSKFFLV; listed as Homo sapiens) [compound 69]” was tested, and the Wells [1] was “++ (20%-49% = ++)” and the Donors [2] was “+++ (50%-70%, +++)”.
“19 (AVVEFLTSV; listed as Homo sapiens) [compound 19]” was tested, and the Wells [1] was “+ (<20% = +)” and the Donors [2] was “++ (20%-49% = ++)”.
For “8 (SMSGYDQVL; listed as Homo sapiens) [compound 8]”, the Wells [1] was “+ (<20% = +)” and the Donors [2] was “++ (20%-49% = ++)”.
In the case of “37 (VLAPLFVYL; listed as Homo sapiens) [compound 37]”, the Donors is reported as 100%, the Wells [1] is reported as “+ (<20% = +)” and the Donors [2] is reported as “++++ (>70 = ++++)”.
